These results are taken from patent publication US20090087443A1, “Pharmacological Adjunctive Treatment Associated with Glaucoma Filtration Surgery” (priority 2007, published 2009).

The test system of series [1] is New Zealand White rabbits. Nature of the series: Mortality/morbidity in the rabbit topical IOP study. The format is in vivo. Conditions: for Mortality (number of animals found dead or euthanized prior to study completion/number of animals in group): right eye topical 4 × daily through Day 31, to Day 33.
For series [2], the system named is New Zealand White rabbits. Put plainly: Slit-lamp ophthalmic observations (McDonald Shadduck scoring) in the rabbit topical IOP study. The class given is in vivo. On the set-up: key to Conjunctival Congestion Score, treated right eye: 1 = A flushed, reddish color predominantly confined to the palpebral conjunctiva with some perilimbal injection but primarily confined to the lower and upper parts of the eye from the 4:00 to 7:00 and 11:00 to 1:00 positions; key to Cornea Score, treated right eye: 1 = Some loss of transparency. Only the epithelium and/or the anterior half of the stoma are involved. The underlying structures are clearly visible although some cloudiness may be readily apparent; key to Ophthalmic Observation (Slit-Lamp), treated right eye, individual animals: AN = Appeared normal. Conditions: for Ophthalmic Observation (Slit-Lamp), treated right eye, individual animals: examination Days 5, 12, 22, 26, 33 as listed per animal (days without scored finding, until death). How it is done: Prior to placement on study, each animal underwent a pre-treatment ophthalmic examination (slit lamp and indirect ophthalmoscopy). Observations were scored according to the McDonald Shadduck system and recorded using a standardized data collection sheet.
Ophthalmic examinations (slit lamp) were performed prior to the first dosing on Days 5, 12, 22, 26, and 33. Ocular findings were scored according to the McDonald Shadduck system and recorded using a standardized data collection sheet.

Series [3] deals with Human Tenon's fibroblasts. Nature of the series: TGF-β stimulated cellular levels of collagen type I, α-smooth muscle actin and tissue transglutaminase (Western blot). The format is cell-based. The following applies: TGF-β 5 ng/ml, 0.1, 1, 3, 5 or 10 μM, day 5, ratio to GAPDH. As for the experimental part: Methods: Human Tenon's fibroblasts were seeded in 60 mm plates in 10% FBS MEM (fetal bovine serum/Eagle's minimum essential medium) and grown until approximately 90% confluency. After the cells were starved in 0.5% FBS MEM for approximately 72 hours, the media was changed to fresh 0.5% FBS MEM. […] Cells were harvested 1, 3 or 5 days later. They were washed twice with cold 1× PBS and scraped into 1×SDS sample buffer. Lysates were assayed for protein content using the DC protein assay kit from Bio-Rad. Equal amounts of protein from each sample were electrophoresed on a 7.5% Tris-glycine SDS gel. Proteins were transferred to a PVDF membrane, blocked and probed with one or more of the following antibodies: mouse monoclonal anti-α-smooth muscle actin Clone 1A4: (Sigma Aldrich, #A2547), mouse monoclonal anti-human GAPDH (6C5) (Santa Cruz Biotechnology, Inc., #sc-32233), goat anti-human collagen α1Type I (L-19) (Santa Cruz Biotechnology, Inc., #sc-8783), or mouse monoclonal anti-transglutaminase II Ab-3 (ClonesCUB7402+TG100) (NeoMarkers, # MS-300-P). Density of each band was measured densitometrically and the ratio to GADPH calculated.
On the technique in general: In western blotting, separated proteins are transferred to a membrane and probed.

The test system of series [4] is IL-1β-induced cytokine production in human corneal epithelial cells (HCECs). Nature of the series: IL-1β-stimulated cytokine production in primary human corneal epithelial cells (30-cytokine Luminex kit).
Protocol: Primary HCECs were seeded in 24-well plates. […] Each treatment was performed in triplicate. Media were collected and used for determination of cytokine content using a 30-cytokine Luminex kit. Cell viability was determined by alamarBlue assay (LP06013).
Median fluorescence intensity (MFI) was used to obtain the concentration of each cytokines in pg/ml based on the standard curve of each cytokine assayed by Luminex. The linear range of the standard curve for each cytokine was used for determination of cytokine concentration. Duplicate values for each sample were averaged. Data were expressed as mean±SD. Statistical analysis was performed using one-way ANOVA-Dunnett's test, and P<0.05 was considered statistically significant.
In series [5] the test system is neovascularization and angiogenesis in the rat cornea. Conditions: X. Xin et al., J. Biol. Chem. 274:9116-9121 (1999); cited from earlier work.
In a further series the test system is fibroblasts. The following applies: cited from earlier work.
The mark [6] stands for this setting: 0.1% dexamethasone, 0.05 mg/dose 4 × daily (Group A).

Several values for one entry are separate records, joined by “and”; a condition that tells them apart may be missing. Identical values can stand only once. Entries after “also recorded” stand apart in the source; their conditions may differ. Like-named read-outs stand apart in the source and are kept apart here.

Regarding `Cc1ccc2c(NCC(O)(CC(C)(C)c3cc(F)cc4c3OCC4)C(F)(F)F)cccc2n1` (stereo not shown), the “Day of Death (day euthanized or found dead), individual rabbits” value in series [1] worked out at 29; in series [1] (10 mg/g suspension, 0.5 mg/dose 4 × daily (Group B)), 11. For the same molecule, the “Recorded Notes on mortality/morbidity, individual rabbits” value in series [1] (1 mg/g suspension, 0.05 mg/dose 4 × daily (Group D)) is recorded as “Found dead”. For the same molecule, the “Mortality (number of animals found dead or euthanized prior to study completion/number of animals in group)” value in series [1] (1 mg/g suspension, 0.05 mg/dose) was “one of ten and 1/10^(6)”; in series [1] (10 mg/g suspension, 0.5 mg/dose) it was “one of ten and 1/10^(4)”. In addition, the “Conjunctival Congestion Score, treated right eye” value (from here on “Conjunctival Congestion Score”) came to 1 in series [2] (1 mg/g suspension 4 × daily, animal No. 3040, Day 22); 1 in series [2] (5 mg/g suspension 4 × daily, animal No. 3031, Day 22); 1 in series [2] (5 mg/g suspension 4 × daily, animal No. 3035, Days 22, 26); 1 in series [2] (5 mg/g suspension 4 × daily, animal No. 3064, Day 5); 1 in series [2] (5 mg/g suspension 4 × daily, animal No. 3074, Day 26); 1 in series [2] (10 mg/g suspension 4 × daily, animal No. 3003, Day 12). Also, the “Conjunctival Congestion Score” value in series [2] (10 mg/g suspension 4 × daily, animal No. 3017, Days 5, 12) is given as 1; in series [2] (10 mg/g suspension 4 × daily, animal No. 3042, Day 26), 1. The “Ophthalmic Observation (Slit-Lamp), treated right eye, individual animals” value in series [2] (1 mg/g suspension 4 × daily), in series [2] (5 mg/g suspension 4 × daily) and in series [2] (10 mg/g suspension 4 × daily) was “AN” each time. Further, the “Other slit-lamp finding in dosed right eye” value in series [2] (1 mg/g suspension, Group D, No. 3043) is “subconjunctival hemorrhage”; in series [2] (10 mg/g suspension, Group B, No. 3083) it was “pinpoint corneal scar”. Moreover, the “Surface area of cornea involvement Score, treated right eye” value in series [2] (10 mg/g suspension 4 × daily, animal No. 3083, Day 5) is on record as 1 (1 = 1-25% area of stromal cloudiness.). Besides, the “Cornea Score, treated right eye” value in series [2] (10 mg/g suspension 4 × daily, animal No. 3083, Day 5, pinpoint corneal scar) is given as 1^(2). The “Effect on TGF-β-induced cellular level of collagen type I” value in series [3] is listed as “inhibitory effect that appeared dose-related; also recorded: inhibit”. For the same molecule, the “Effect on TGF-β-induced cellular level of tissue transglutaminase” value in series [3] is listed as “inhibitory effect that appeared dose-related; also recorded: inhibit”. Further, in series [3], the “Effect on TGF-β-induced cellular level of α-smooth muscle actin” value is recorded as “inhibitory effect that appeared dose-related; also recorded: inhibit”. In series [4], the “Potency relative to dexamethasone for inhibition of IL-1β-stimulated production of IL-6, IL-7, TGF-α, TNF-α, VGEF, and MCP-1” value is listed as “comparable potency”. The “Potency relative to dexamethasone in inhibiting IL-1β-stimulated production of G-CSF” value in series [4] is “more potent than dexamethasone”. Besides, in series [4], the “Potency relative to dexamethasone in inhibiting IL-1β-stimulated production of GM-CSF, IL-8, and RANTES” value is “somewhat less potent than dexamethasone”. Also, the “Effect on IL-1β-stimulated RANTES production” value in series [4] (1 nM-10 μM, IL-1β 10 ng/ml, 18 h) is “no significant effect”.
As to `CCCCCC=CC=C1C(=O)C=C[C@@H]1CC=CCCCC(=O)O` [15-deoxy-Δ-12,14-prostaglandin J2], in series [5], the “Effect on neovascularization and angiogenesis in the rat cornea” value is reported as “inhibit”.
As to `C[C@@H]1C[C@H]2[C@@H]3CCC4=CC(=O)C=C[C@]4(C)[C@@]3(F)[C@@H](O)C[C@]2(C)[C@@]1(O)C(=O)CO` [dexamethasone, reference compound], the “Mortality (number of animals found dead or euthanized prior to study completion/number of animals in group)” value is given as “Six of ten” in series [1] (0.1% dexamethasone (Maxidex), 0.05 mg/dose) and 6/10^(3) in series [1] (0.1% dexamethasone (Maxidex), 0.05 mg/dose, listed as Dexamethasone). In addition, in series [1] (setting [6]), the “Day of Death (day euthanized or found dead), individual rabbits” value was 25 (2×) and 27 (2×) and 23 and 13. For the same molecule, in series [1] (setting [6]), the “Recorded Notes on mortality/morbidity, individual rabbits” value is reported as “Euthanized due to severe profuse hemorrhagic diarrhea; also recorded: Found dead. No rigor mortis present”. The molecule further gave a Mortality rate in series [1] (dexamethasone 0.05 mg/dose 4 × daily up to 31 days) of 6 deaths per 10 rabbits. Moreover, the “Conjunctival Congestion Score” value in series [2] (0.1% dexamethasone 4 × daily, animal No. 3016, Day 5) is 1; in series [2] (0.1% dexamethasone 4 × daily, animal No. 3081, Day 22) it was 1. Further, in series [2] (0.1% dexamethasone 4 × daily), the “Ophthalmic Observation (Slit-Lamp), treated right eye, individual animals” value is “AN”.

B1: Prolactin: antagonist to at least one TGF-β isoform (protein, UniProt P01236 29-227, looked up)
Prolactin: LPICPGGAARCQVTLRDLFDRAVVLSHYIHNLSSEMFSEFDKRYTHGRGFITKAINSCHTSSLATPEDKEQAQQMNQKDFLSLIVSILRSWNEPLYHLVTEVRGMQEAPEAILSKAVEIEEQTKRLLEGMELIVSQVHPETKENEIYPVWSGLPSLQMADEESRLSAYYNLLHCLRRDSHKIDNYLKLLKCRIIHNNNC
Regarding B1, the “Effect on the chemotaxis of fibroblasts” value in the series on fibroblasts is “inhibit”.
